Key:
[1] = system: 4T1 triple negative breast cancer tumors; test: Primary tumor regrowth and survival after 4T1 tumor resection (Example 4.4); type: in vivo, mice
Protocol: Six to eight weeks old female BALB/c mice (Shanghai Lingchang Bio-Technology Co. Ltd, Shanghai, China) were injected with 3×10^5 4T1 mouse tumor cells in PBS (0.1 mL/mouse) into the mammary fat pad. At the time of randomization, the TVs ranged between 69.9 and 173.9 mm3 (median 105.7, IQR=100.7-125.4). Body weights and TVs (caliper measurements) were determined 2-3 times/week. After randomization (day 9 after tumor inoculation) mice received different treatments under different dosing regimen (see Table 9 for dosing scheme). For all groups, 4 mice are sacrificed 48h after the 2nd miRNA-193a injection in the first week and in the 2nd week. Primary tumors were surgically removed from the mammary fat pad on day 20 after inoculation. After a recovery period of 3 days, treatment was resumed for 6 more weeks until day 63. Re-growth of (distant) tumors was monitored in addition to BW, and mice were sacrificed if end-points were met.

[2] = system: A2058; test: Cell viability (MTS assay or cell count); type: cell-based, human; details: 10 nM; Melanoma A2058; normalized to mock
Protocol: (§1) Depending on cancer cell type 3000-6000 cells were seeded in a 96 well plate. After cells attached, they were transfected with different concentrations of miRNA-193a and viability was measured at different time points. Viability measurement was performed using CellTiter 96 AQueous One Solution Cell Proliferation Assay (Promega). 20 μL of MTS reagent was added to 100 μL of media in each well in 96-well plate and incubated for 2 hours at 37° C. Absorbance was measured at 490 nm for each sample in 96 well plate reader.
(§2) Different biological effects of miRNA-193a-3p have been tested in various cancer cell lines (see Table 13). For this, various cells were treated with miRNA-193a at different concentrations (1, 3, 10 nM). For all experiments controls (untreated, mock and scrambled) were measured. […] Data shown in Table 13 are the results for miRNA-193a at 10 nM concentration at indicated time points. All the results have been quantified and normalized to the mock control.
(§3) miRNA-193a treatment in various cancer cell lines decreased cell viability over time as measured by either an MTS assay or by cell count. It enhanced apoptosis induction over time as measured by a caspase 3/7 apoptosis assay. […] It is of note that due to intrinsic characteristics and gene mutation status of each cell line, performing one method to detect apoptosis is not always ideal for all cell lines.

[3] = system: HeP3B, SNU449; test: Cell viability (MTS assay or cell count); type: cell-based, human; details: 10 nM, HCC HeP3B, normalized to mock
Protocol: as §1, §2, §3

[4] = system: Huh7; test: Cell viability (MTS assay or cell count); type: cell-based, human; details: 10 nM; HCC Huh7; normalized to mock
Protocol: as §1, §2, §3

[5] = system: EMT6; test: Cell viability (MTS assay or cell count); type: cell-based; details: 10 nM; TNBC EMT6; normalized to mock
Protocol: as §1, §2, §3

[6] = system: H1299; test: Cell viability (MTS assay or cell count); type: cell-based; details: 10 nM; NSCLC H1299; normalized to mock
Protocol: as §1, §2, §3

[7] = system: H1975; test: Cell viability (MTS assay or cell count); type: cell-based; details: 10 nM; NSCLC H1975; normalized to mock
Protocol: as §1, §2, §3

[8] = system: HCT116; test: Cell viability (MTS assay or cell count); type: cell-based; details: 10 nM; Colon HCT116; normalized to mock
Protocol: as §1, §2, §3

[9] = system: Panc-1; test: Cell viability (MTS assay or cell count); type: cell-based; details: 10 nM; Pancreas Panc-1; normalized to mock
Protocol: as §1, §2, §3

[10] = system: A2058; test: Cell motility, Boyden chamber assay; type: cell-based, human; details: 10 nM
Protocol: (§4) To check the migratory ability of cells, a Boyden Chamber assay was performed, which is based on a chamber of two medium-filled compartments separated by a […] pore size membrane (BD falcon). In this assay, depending on cell type 60,000-120,000 cells were seeded in the upper compartment of the membrane in serum free medium and were allowed to migrate through the pores of the membrane into the lower compartment, in which serum is present in the media. The serum acts as a chemoattractant. After an appropriate incubation time, the membrane between two compartments was fixed, stained and 6 different images from each membrane were taken. The number of migratory cells were counted using Image J analysis.
(§5) Different biological effects of miRNA-193a-3p have been tested in various cancer cell lines (see Table 13). For this, various cells were treated with miRNA-193a at different concentrations (1, 3, 10 nM). For all experiments controls (untreated, mock and scrambled) were measured. All assays were performed at 24h, 48h and 72h time points. Data shown in Table 13 are the results for miRNA-193a at 10 nM concentration at indicated time points. All the results have been quantified and normalized to the mock control.
as §3

[11] = system: A549; test: Cell motility, Boyden chamber assay; type: cell-based, human; details: 10 nM; A549 (first of two symbols in the cell)
Protocol: as §4, §5, §3

[12] = system: HeP3B, SNU449; test: Cell motility, Boyden chamber assay; type: cell-based, human; details: 10 nM
Protocol: as §4, §5, §3

[13] = system: A2058 melanoma cells; test: Adenosine assay; type: cell-based, human; details: miRNA-193a-3p at 10 nM, vs untreated, mock, scrambled
Protocol: 4000 A2058 melanoma cells were seeded per well in a 96 well plate. 4h after seeding, cells were transfected with different concentrations of miRNA-193a-3p, scrambled control, siNT5E and siPool as control. 24h post transfection the cells were treated with 500 μM AMP and adenosine measurement was performed 24h post-treatment following steps from adenosine measurement kit (BioVision).

## miRNA-193a: duplex of the miRNA-193a-3p of SEQ ID NO: 218 (mimic, sense) with antisense strand SEQ ID NO: 219; naked in vitro, formulated in vivo (sense UGGGACUUUGUAGGCCAGUUTT; antisense AACUGGCCUACAAAGUCCCAGU; chemistry not given here; listed as Homo sapiens)
[1]; formulated in diamino lipid nanoparticles, 10 mg/kg BIW iv
  Tumor re-growth after tumor excision: reduced tumor re-growth
[1]; formulated in diamino nanoparticles, 10 mg/kg BIW iv
  Mouse survival: positively affected mouse survival
[1]; primary tumor removal day 20, 10 mg/kg twice weekly for further 6 weeks
  Mice that showed a tumor re-growth after primary tumor removal: 1 out of 10
[2]
  Viability (96 h): ↓↓ (Viability < 50%)
[3]
  Viability (96 h): ↓↓ (Viability < 50%)
[4]
  Viability (96 h): ↓↓ (Viability < 50%)
[5]
  Viability (96 h): ↓↓ (Viability < 50%)
[6]
  Viability (96 h): ↓↓ (Viability < 50%)
[7]
  Viability (96 h): ↓↓ (Viability < 50%)
[8]
  Viability (96 h): ↓↓ (Viability < 50%)
[9]
  Viability (96 h): ↓↓ (Viability < 50%)
[10]
  Motility (18 to 24 h): ↓
[11]
  Motility (18 to 24 h): ↓
[12]
  Motility (18 to 24 h): ↓
[13]
  Adenosine generation: reduces
